Counter-ions that a name gives are not always drawn. Like-named read-outs stand apart in the source and are kept apart here.

Here are results for 1 compound from patent US20120015809A1 (priority 2009, published 2012).

This series concerns Ralstonia solanacearum (race 1, biovar 1; tomato strain Rs5). Conditions: 72 h; for Number of colonies: mean ± standard error (n = 6).

With `[H]/N=C(/N)N[C@H]1[C@H](O)[C@@H](O)[C@H](O[C@@H]2O[C@@H](C)[C@](O)(C=O)[C@H]2O[C@@H]2O[C@@H](CO)[C@H](O)[C@@H](O)[C@@H]2NC)[C@@H](N/C(N)=N\[H])[C@@H]1O` [Streptomycin, streptomycin sulfate], the “Mortality (%)” value came to 0.9% (200 mg kg^−1 soil); 11.9% (400 mg kg^−1 soil); 21.6% (800 mg kg^−1 soil); 21% (800 mg kg^−1 soil, listed as streptomycin); 75.3% (1500 mg kg^−1 soil). Further, the Number of colonies by setting is: (200 mg kg^−1 soil) 256000 ± 16500; (400 mg kg^−1 soil) 227000 ± 78100; (800 mg kg^−1 soil) 204000 ± 82900; (1500 mg kg^−1 soil) 63800 ± 42300.
